Reference: patent publication US7649012B2, “Compounds, pharmaceutical compositions containing same, and methods of use for same” (FASgen, Inc., priority 2002, dated 2010)
In brackets after ≈: the same amount, converted by molar mass. Like-named read-outs stand apart in the source and are kept apart here.

Tests used:
Format in all cases: cell-based
[1] = test system: MCF-7 human breast cancer cells; assay: XTT cytotoxicity assay; details: MCF7, MCF-7, 72 hours, some cells marked (M)
Description: The XTT assay is a non-radioactive alternative for the [^51 Cr] release cytotoxicity assay. XTT is a tetrazolium salt that is reduced to a formazan dye only by metabolically active, viable cells. The reduction of XTT is measured spectrophotometrically as OD490-OD650.
To measure the cytotoxicity of specific compounds against cancer cells, 9×10^3 MCF-7 human breast cancer cells, obtained from the American Type Culture Collection are plated per well in 96 well plates in DMEM medium with 10% fetal bovine serum, insulin, penicillin, and streptomycin. Following overnight culture at 37° C. and 5% CO2, the compounds to be tested, dissolved in DMSO, are added to the wells in 1 μl volume at the following concentrations: 80, 40, 20, 10, 5, 2.5, 1.25, and 0.625 μg/ml in triplicate. Additional concentrations are tested if required. 1 μl of DMSO is added to triplicate wells are the vehicle control. C75 is run at 40, 20, […], and 5 μg/ml in triplicate as positive controls. After 72 hours of incubation, cells are incubated for 4 hours with the XTT reagent as per manufacturer's instructions (Cell Proliferation Kit II (XTT) Roche). Plates are read at OD490 and OD650 on a Molecular Devices SpectraMax Plus Spectrophotometer. Three wells containing the XTT reagent without cells serve as the plate blank. XTT data are reported as OD490-OD650-Averages and standard error of the mean are computed using SOFTmax Pro software (Molecular Dynamics).
The IC50 for the compounds is defined as the concentration of drug leading to a 50% reduction in OD490-OD650 compared to controls. The OD490-OD650 are computed by the SOFTmax PRO software (Molecular Devices) for each compound concentration. IC50 is calculated by linear regression, plotting the FAS activity as percent of control versus drug concentrations. Linear regression, best-fit line, r^2, and 95% confidence intervals are determined using Prism Version 3.0 (Graph Pad Software).

[2] = test system: Enterococcus faecalis (ATCC # 29212); assay: Broth microdilution MIC; details: for MIC: Enterococcus faecalis, ATCC29212
Description: (§1) A broth microdilution assay is used to assess the antimicrobial activity of the compounds. […] Microorganisms tested include Staphylococcus aureus (ATCC # 29213), Enterococcus faecalis (ATCC # 29212), Pseudomonas aeruginosa (ATCC # 27853), and Escherichia coli (ATCC # 25922). The assay is performed in two growth media, Mueller Hinton Broth and Trypticase Soy Broth. […] Colonies are suspended in sterile broth so that the turbidity matches the turbidity of a 0.5 McFarland standard. The inoculum is diluted 1:10 in sterile broth (Mueller Hinton or Trypticase soy) and 195 ul is dispensed per well of a 96-well plate. The compounds to be tested, dissolved in DMSO, are added to the wells in 5 ul volume at the following concentrations: 25, 12.5, 6.25, 3.125, 1.56 and 0.78 ug/ml in duplicate. Additional concentrations are tested if required. 5 ul of DMSO added to duplicate wells are the vehicle control. Serial dilutions of positive control compounds, vancomycin (E. faecalis and S. aureus) and tobramycin (E. coli and P. aeruginosa), are included in each run. After 24 hours of incubation at 37° C., plates are read at OD600 on a Molecular Devices SpectraMax Plus Spectrophotometer. Average OD600 values are computed using SOFTmax Pro Software (Molecular Devices) and MIC values are determined by linear regression analysis using Prism version 3.02 (Graph Pad Software, San Diego).

[3] = test system: Escherichia coli (ATCC # 25922); assay: Broth microdilution MIC; details: for MIC: Escherichia coli, ATCC25922
Description: as §1

[4] = test system: Pseudomonas aeruginosa (ATCC # 27853); assay: Broth microdilution MIC; details: for PSAE/MH(MIC): Mueller Hinton Broth; for PSAE/Tsoy(MIC): Trypticase Soy Broth
Description: as §1

[5] = test system: Staphylococcus aureus (ATCC # 29213); assay: Broth microdilution MIC; details: for MIC: Staphylococcus aureus, ATCC29213
Description: as §1

[6] = Mueller Hinton Broth, read-out: SA/MH(MIC)
[7] = Trypticase Soy Broth, read-out: SA/Tsoy(MIC)
[8] = Mueller Hinton Broth, read-out: EF/MH(MIC)
[9] = Trypticase Soy Broth, read-out: EF/Tsoy(MIC)
[10] = Mueller Hinton Broth, read-out: Ecoli/MH(MIC)
[11] = Trypticase Soy Broth, read-out: Ecoli/Tsoy(MIC)

SMILES | EF/MH(MIC) ([2]; Mueller Hinton Broth) | EF/Tsoy(MIC) ([2]; Trypticase Soy Broth) | Ecoli/MH(MIC) ([3]; Mueller Hinton Broth) | Ecoli/Tsoy(MIC) ([3]; Trypticase Soy Broth) | PSAE/MH(MIC) [4] | PSAE/Tsoy(MIC) [4] | MIC [5, 6] | MIC [5, 7] | MIC [2, 8] | MIC [2, 9] | MIC [3, 10] | SA/MH(MIC) ([5]; Mueller Hinton Broth) | MIC [3, 11] | IC50 [1]
CCCCCCCC[C@@]1(C)SC(=O)C=C1OC(=O)NC(C)C (racemic) | – | – | Neg | Neg | Neg | Neg | 32 µg/mL (≈ 97.7 µM) | 39 µg/mL (≈ 119 µM) | 60 µg/mL (≈ 183 µM) | 64 µg/mL (≈ 195 µM) | – | – | – | 45.7 ± 25.9 µg/mL (≈ 140 µM)
C=CCC1=C(OC)C(C)(CCCCCCCC)SC1=O (stereo not drawn) | Neg | – | Neg | Neg | Neg | Neg | – | 98 µg/mL (≈ 331 µM) | – | 169 µg/mL (≈ 570 µM) | – | Neg | – | 55 ± 2 µg/mL (≈ 186 µM)
C=CCN(C)C(=O)COC1=CC(=O)SC1(C)CCCCCCCC (stereo not drawn) | – | – | – | – | – | – | – | – | – | – | – | – | – | 9.2 ± 2.2 µg/mL (≈ 26 µM)
CCCCCCCCC1(C)SC(=O)C(C(C)O)=C1OC (stereo not drawn) | – | – | Neg | – | Neg | Neg | 53.3 ± 2.1 µg/mL (≈ 177 µM) | 16.2 ± 3.8 µg/mL (≈ 53.9 µM) | 77 µg/mL (≈ 256 µM) | 25 µg/mL (≈ 83.2 µM) | – | – | 249 µg/mL (≈ 829 µM) | 21 ± 2.9 µg/mL (≈ 69.9 µM)
CCCCCC[C@@]1(C)SC(=O)C=C1OCC(=O)NCCCBr (racemic) | – | – | Neg | – | Neg | Neg | 147 µg/mL (≈ 375 µM) | 237 µg/mL (≈ 604 µM) | 99 µg/mL (≈ 252 µM) | 121 µg/mL (≈ 308 µM) | – | – | 293 µg/mL (≈ 747 µM) | 21.2 ± 1.1 µg/mL (≈ 54 µM)

Continued, in another order:

EF/MH(MIC) ([2]; Mueller Hinton Broth) | EF/Tsoy(MIC) ([2]; Trypticase Soy Broth) | Ecoli/MH(MIC) ([3]; Mueller Hinton Broth) | Ecoli/Tsoy(MIC) ([3]; Trypticase Soy Broth) | PSAE/MH(MIC) [4] | PSAE/Tsoy(MIC) [4] | MIC [5, 6] | MIC [5, 7] | MIC [2, 8] | MIC [2, 9] | MIC [3, 10] | SA/MH(MIC) ([5]; Mueller Hinton Broth) | MIC [3, 11] | SMILES | IC50 [1]
Neg | Neg | Neg | Neg | Neg | Neg | 52 µg/mL (≈ 247 µM) | 87 µg/mL (≈ 414 µM) | – | – | – | – | – | C/C=C/C(C)=C/C1(C)SC(=O)C=C1O (stereo not drawn) | > 80 µg/mL
– | – | – | Neg | Neg | Neg | 64 µg/mL (≈ 213 µM) | 41 µg/mL (≈ 136 µM) | 73 µg/mL (≈ 243 µM) | 65 µg/mL (≈ 216 µM) | 296 µg/mL (≈ 985 µM) | – | – | CCCCCCCC[C@@]1(C)SC(=O)C=C1OC(=O)OC (racemic) | 21.6 ± 0.2 µg/mL (≈ 71.9 µM)
– | Neg | – | Neg | Neg | Neg | 202 µg/mL (≈ 961 µM) | 85 µg/mL (≈ 404 µM) | 186 µg/mL (≈ 884 µM) | – | 225 µg/mL (≈ 1070 µM) | – | – | CC/C=C/C=C/C1(C)SC(=O)C=C1O (stereo not drawn) | > 80 µg/mL
– | – | Neg | Neg | Neg | Neg | 53.1 ± 0.5 µg/mL (≈ 185 µM) | 12 ± 0.5 µg/mL (≈ 41.9 µM) | 66 µg/mL (≈ 230 µM) | 21 µg/mL (≈ 73.3 µM) | – | – | – | CCCCCCCCC1(C)SC(=O)C(C(C)O)=C1O (stereo not drawn) | 23.9 ± 2.9 µg/mL (≈ 83.4 µM)
– | – | – | – | – | – | 45 µg/mL (≈ 143 µM) | 83 µg/mL (≈ 264 µM) | 86 µg/mL (≈ 273 µM) | 62 µg/mL (≈ 197 µM) | – | – | – | CCCCCCCCC1(C)SC(=O)C=C1OC(=O)OCC (stereo not drawn) | 15.1 ± 2.6 µg/mL (≈ 48 µM)
– | Neg | Neg | – | Neg | Neg | – | 129 µg/mL (≈ 429 µM) | 21.3 µg/mL (≈ 70.9 µM) | – | – | Neg | 281 µg/mL (≈ 935 µM) | CCCCCC[C@@]1(C)SC(=O)C=C1OCC(=O)OCC (racemic) | 39.6 ± 2.2 µg/mL (≈ 132 µM)
– | – | Neg | Neg | Neg | Neg | – | 97 µg/mL | 133 µg/mL | 91 µg/mL | – | Neg | – | C=CCC1(C)C(=O)S[C@](C)(CCCCCCCC)C1=O (mixture of isomers) | 50.4 ± 4.7 µg/mL
